Measurements: patent US9023998B2, “Near infrared fluorogen and fluorescent activating proteins for in vivo imaging and live-cell biosensing” (Carnegie Mellon University, priority 2013, dated 2015)

What was measured:
mL9.5 (SEQ. ID. NO. 21) = test: Fluorogen activation by purified monomeric FAP mL9.5 (spectra); assay type: biochemical; conditions: purified protein, about 300 nM fluorogen, PBS pH 7.4
Description: While the peptide linker that joins the VL units in dL9.2 (SEQ. ID. NO. 2) and dL9.5 (SEQ. ID. NO. 3) enhance fluorogen binding affinity and binding rate by reducing the entropic cost of assembly around the fluorogen, the linker is not strictly necessary for fluorogenic activation. […] In panels C and D, corresponding spectra from mL9.5:SKC602 (SEQ. ID. NO. 21:SKC602) and mL9.5:SKC728 (SEQ. ID. NO. 21:SKC728) fluoromodules are shown. Spectra were obtained using a Quantamaster™ fluorometer (PTI) equipped with dual monochromators on both excitation and emission light paths.
To facilitate ligase-dependent cloning methods, the above procedure was repeated for dL9.5 (SEQ. ID. NO. 6), using otherwise identical primers that appended BspEI (TCCGGA) (SEQ. ID. NO. 25) and BamHI (GGATCC) (SEQ. ID. NO. 26) sites directly at the 5′ and 3′ termini, respectively, of the dL9.5 gene (SEQ. ID. NO. 6). The resulting plasmid, designated pPNL9z-dL9.5, could be digested with BspEI (SEQ. ID. NO. 25) and BamHI (SEQ. ID. NO. 26) to produce a yeast expression vector backbone capable of receiving inserts with like-digested termini. […]

dL9.5 (SEQ. ID. NO. 3) = test: Binding of fluorogen by FAP dL9.5
Description: The V70A mutation was propagated to both light chains to produce dL9.3 (SEQ. ID. NO. 31), which was immediately subjected to mutagenesis and screening in the surface-display format described previously (Chao, et al., Nature Protocols (2006)) in the presence of SKC602. The brightest clone collected from this screen was designated dL9.5 (SEQ. ID. NO. 3), and sequencing described exactly two mutations—tyrosine 96 to histidine—on both light chains.

| Structure (SMILES) | Induction of NIR fluorescence by mL9.5 (mL9.5 (SEQ. ID. NO. 21)) | Binding by dL9.5 (dL9.5 (SEQ. ID. NO. 3)) |
| --- | --- | --- |
| CN(C)c1ccc(/C=C/C(=C2C=CC(=[N+](C)C)C=C2)c2ccc(N(C)C)cc2)cc1 [SKC602, (E)-N-(4-(1,3-bis(4-(dimethylamino)phenyl)allylidene)cyclohexa-2,5-dien-1-ylidene)-N-methylmethanaminium] | induce NIR fluorescence | – |
| CN(C)c1ccc(C(/C=C/c2ccc(N(C)CCCCC(=O)NC(CCS(=O)(=O)O)C(=O)O)cc2)=C2C=CC(=[N+](C)C)C=C2)cc1 (stereo not drawn) [SKC728] | induce NIR fluorescence | bind |
